Columns and labels:
[1] = test system: male Fisher 344 rats; conditions: NorBNI 32 mg/kg 24 hours prior; U50,488H 6 mg/kg
[2] = test system: C57BL/6 mice; test: Warm water tail immersion; assay type: in vivo, mouse
[3] = test system: C57BL/6 mice; test: Chloroquine phosphate-induced scratching; assay type: in vivo, mouse; conditions: NorBNI 10 mg/kg ip 24 hours prior; triazole 1.1 1 mg/kg sc
[4] = test system: male Fisher 344 rats; test: Suppression of VTA ICSS by 1.8% lactic acid; assay type: in vivo, rat; conditions: triazole 1.1 24 mg/kg
[5] = test system: C57BL/6J male mice; conditions: mouse, in vivo
[6] = target: KOR in mouse striatum (Mus musculus, UniProt P33534); test: [35S]GTPγS binding in mouse striatal membranes; assay type: biochemical
[7] = test system: KOR; test: Bias analysis, G protein; conditions: reference U50,488H
[8] = target: striatal KOR (Mus musculus, UniProt P33534); assay type: binding
[9] = target: human KOR (Homo sapiens, UniProt P41145); assay type: biochemical
[10] = test system: KOR; conditions: compared to reference agonist U69,593; cited from earlier work
[11] = test system: dopamine concentration in nucleus accumbens; test: Microdialysis of nucleus accumbens dopamine in freely moving mice; assay type: in vivo, mouse; conditions: triazole 1.1 15 mg/kg ip
[12] = after systemic dosing; cited from earlier work
[13] = target: KOR (OPRK1) βarrestin2 recruitment (Homo sapiens, UniProt P41145); test: βarrestin2 enzyme fragment complementation assay; assay type: cell-based
[14] = test system: dopamine release in nucleus accumbens; conditions: mouse brain slices
[15] = test system: KOR; conditions: cited from earlier work
[16] = test system: mice; conditions: mouse, in vivo; cited from earlier work
[17] = test system: mice; conditions: cited from earlier work

Sequence of striatal KOR (P33534 whole entry): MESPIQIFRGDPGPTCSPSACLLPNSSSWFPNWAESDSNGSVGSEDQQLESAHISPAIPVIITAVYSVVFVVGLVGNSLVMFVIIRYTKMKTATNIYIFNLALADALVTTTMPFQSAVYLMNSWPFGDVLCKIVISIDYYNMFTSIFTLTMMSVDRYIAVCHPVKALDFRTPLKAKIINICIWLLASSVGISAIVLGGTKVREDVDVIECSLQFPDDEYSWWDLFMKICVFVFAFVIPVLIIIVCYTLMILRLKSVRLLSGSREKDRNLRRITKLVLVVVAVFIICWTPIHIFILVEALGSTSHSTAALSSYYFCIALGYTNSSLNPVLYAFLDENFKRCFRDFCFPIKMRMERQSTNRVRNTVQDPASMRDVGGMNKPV
Sequence of KOR in mouse striatum (P33534 whole entry): as above
Sequence of human KOR (P41145 whole entry): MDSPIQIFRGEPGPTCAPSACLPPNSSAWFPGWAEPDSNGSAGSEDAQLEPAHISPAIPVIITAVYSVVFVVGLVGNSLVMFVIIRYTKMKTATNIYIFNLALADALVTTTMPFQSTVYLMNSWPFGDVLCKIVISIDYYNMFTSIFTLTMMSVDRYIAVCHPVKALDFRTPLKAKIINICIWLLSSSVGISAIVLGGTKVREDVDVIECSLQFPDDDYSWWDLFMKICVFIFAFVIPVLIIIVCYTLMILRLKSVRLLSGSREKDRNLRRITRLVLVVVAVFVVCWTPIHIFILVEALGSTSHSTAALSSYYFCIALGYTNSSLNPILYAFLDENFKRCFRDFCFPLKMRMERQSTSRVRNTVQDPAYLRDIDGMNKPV
Sequence of KOR (OPRK1) βarrestin2 recruitment (P41145 whole entry, the tested form may be a part): as the sequence (P41145 whole entry) above

For `Oc1ccc2c3c1O[C@H]1c4[nH]c5c(c4C[C@@]4(O)[C@@H](C2)N(CC2CC2)CC[C@]314)C[C@@]1(O)[C@H]2Cc3ccc(O)c4c3[C@@]1(CCN2CC1CC1)[C@H]5O4` [NorBNI, Norbinaltorphimine, reference compound], the “Blockade of U50,488H effects on ICSS” value [1] was “blocked”, the “Antagonism of agonist-induced antinociception (tail flick)” value ([2]; NorBNI 15 mg/kg ip, 10 min before U50,488H or triazole 1.1) was “fully antagonized the antinociception produced by both compounds” and the “Blockade of antipruritic effects of triazole 1.1” value [3] was “blocked the antipruritic effects of triazole 1.1”. For the same molecule, the “Blockade of analgesic effect of triazole 1.1 on lactic acid-suppressed ICSS” value ([4]; NorBNI 32 mg/kg prior) was “completely blocked”.
For `Cc1ccc(CSc2nnc(-c3ccccn3)n2Cc2ccco2)cc1C(F)(F)F` [Triazole 1.1, 2-(4-(furan-2-ylmethyl)-5-((4-methyl-3-(trifluoromethyl)benzyl)thio)-4H-1,2,4-triazol-3-yl)pyridine], the “Locomotor activity (ambulation) in open field over 1 hour” value [5] was “did not affect locomotor activity at any of the doses tested”, the “Response latency (%MPE) in warm water tail flick assay” value ([2]; C57BL/6 mice, sc, 20 min after injection, 10-s cutoff) was “produced an increase in response latency in a dose-dependent manner” and the “Antinociceptive efficacy in KOR-KO mice (tail flick)” value ([2]; KOR-KO mice, 30 mg/kg, ip) was “Neither drug had efficacy in KOR-KO mice”. For the same molecule, the EC50 [6] was 497 ± 34 nM, the “Bias factor G/β (10^ΔΔLogR)” value ([7]; G protein/βarrestin2) was 28 and the “ΔΔLogR (ΔLogR of [35S]GTPγS − ΔLogR of βarrestin2 EFC)” value ([7]; with 95% CI) was 1.44 (1.29 to 1.60). The “Reduction of specific [3H]U69,593 binding in striatum compared to untreated mice” value [8] was 40%, the “[35S]GTPγS binding assay Emax” value [9] was 101 ± 5% and the “Preference for G protein signaling over βarrestin2 recruitment” value [10] was “displays a preference for G protein signaling over βarrestin2 recruitment”. The “Effect on dopamine concentration in nucleus accumbens (microdialysis)” value [11] was “did not significantly affect dopamine concentrations”, the “Brain penetration (tissue content in whole brain)” value [12] was “brain-penetrant” and the “Effect on lactic acid-induced suppression of ICSS (EF50 and Rmax)” value ([4]; […] lactic acid ip, ketoprofen 1 mg/kg sc, U50,488H 6 mg/kg) was “suppressed the effect of lactic acid compared to vehicle administration”. The “βarrestin2 enzyme fragment complementation assay Emax” value [13] was 98 ± 4%, the “Effect on evoked dopamine release, nucleus accumbens core” value ([14]; 10-1000 nM) was “no measureable decreases in the core” and the “Effect on evoked dopamine release, nucleus accumbens shell” value ([14]; 10-1000 nM) was “a modest decrease in the shell only at the highest concentration tested”. For the same molecule, the “EC50 for decrease in dopamine release, nucleus accumbens core” value ([14]; 10-1000 nM cumulative) was “nonconvergence of curves” and the “EC50 for decrease in dopamine release, nucleus accumbens shell” value ([14]; 10-1000 nM cumulative) was “nonconvergence of curves”.
For RB-64, the “Bias for G protein signaling over βarrestin2 recruitment” value [15] is listed as “displays bias for G protein signaling over βarrestin2 recruitment”, the “Antinociceptive efficacy and locomotor activity” value [16] is listed as “preserves antinociceptive efficacy without decreasing locomotor activity” and the “Conditioned place aversion (CPA)” value [17] is listed as “produces conditioned place aversion (CPA) in mice”.

Reference: publication PMC5231411 (Science signaling, 2016)
